Measured values as given in PMC11983176 (ACS Omega, 2025).
Like-named read-outs stand apart in the source and are kept apart here.

Legend:
MCF-7 [1] = experiment: MTT cytotoxicity assay, MCF-7; format: cell-based, human; conditions: read-out: Cytotoxicity (IC50) MCF-7, 48 h of treatment
T47D = experiment: MTT cytotoxicity assay, T47D; format: cell-based, human
MCF-7 [2] = experiment: Cell viability by cell adhesion assay; format: cell-based, human; conditions: MCF-7, 500 to 1.95 μM, 45 min
[3] = Stability in PBS and Tris-HCl buffer by UV-vis spectroscopy; format: physicochemical; conditions: PBS (0.1 M, pH 7.4) and Tris-HCl, 10% DMSO, room temperature, 5 min to 72 h

What does the source list for “1-Cyclopentyl-2,3-dihydro-1H-benzimidazole [compound 1]”?
IC50 (MCF-7 [1]): 37 ± 1.93 µM; IC50 (T47D; read-out: Cytotoxicity (IC50) T47D, MTT assay, 48 h of treatment): 41 ± 2.12 µM

Which IC50 (T47D; Homo sapiens, T47D, 48 h, read-out: Cytotoxicity (IC50) T47D, MTT assay, 48 h of treatment) does the source give for `CC/C(=C(\c1ccccc1)c1ccc(OCCN(C)C)cc1)c1ccccc1` [Tamoxifen] here?
Its IC50 is 13 ± 0.71 µM.

And the “cell killing in adhesion assay” value (MCF-7 [2])?
Its value is “slightly less initial effects on MCF-7 cells”.

Which “stability in buffer solution” value [3] does the source give for `O=[N+]([O-])[O-].[Ag+]` [silver nitrate] here?
Its value is “precipitates appeared immediately”.

With `[Cl][Ag]` [silver chloride] as the compound, how does the “stability in buffer solution” value [3] read?
Its value is “precipitates appeared immediately”.
